Assay [1] can be described thus: Inhibition of Plasmodium falciparum DHODH.
For assay [2], the target named is T1, Dihydroorotate dehydrogenase (quinone), mitochondrial (Homo sapiens, UniProt Q02127). Description: Inhibition of DHODH (unknown origin).
For assay [3], the system named is Vesicular stomatitis virus. Nature of the assay: Antiviral activity against Vesicular stomatitis virus infected in human A549 cells assessed as reduction in virus replication. The format is functional, organism-based.
For a further assay, the system named is Yellow fever virus. Description: Antiviral activity against Yellow fever virus infected in human A549 cells assessed as reduction in virus replication. It is filed as functional, organism-based.
Assay [4] deals with Dengue virus. Nature of the assay: Antiviral activity against Dengue virus infected in human A549 cells assessed as reduction in virus replication. The format is functional, organism-based.
A further assay deals with West Nile virus. Description: Antiviral activity against West Nile virus infected in human A549 cells assessed as reduction in virus replication. It is filed as functional, organism-based.
In assay [5] the test system is Western equine encephalitis virus. Nature of the assay: Antiviral activity against Western equine encephalomyelitis virus infected in human A549 cells assessed as reduction in virus replication. It is filed as functional, organism-based.
In assay [6] the target is T1, Dihydroorotate dehydrogenase (quinone), mitochondrial. Description: Inhibition of human DHODH.
Assay [7] in a line: Inhibition of Helicobacter pylori DHODH.
Another assay relates to Helicobacter pylori. Description: Antibacterial activity against Helicobacter pylori by whole cell-based assay. It is filed as functional.
Assay [8] is described as follows: Inhibition of Enterococcus faecalis DHODH.
Assay [9] can be described thus: Inhibition of Escherichia coli DHODH.
Another assay concerns Human alphaherpesvirus 3. Description: Antiviral activity against Varicella zoster virus. The format is functional, organism-based.
A further assay has as its system Human alphaherpesvirus 2. Nature of the assay: Antiviral activity against Herpes simplex viruses type 2. The format is functional, organism-based.
Assay [10] can be described thus: Antiviral activity against Human herpesvirus 6 type A. The format is functional, Human herpesvirus 6A.
The next assay relates to Human alphaherpesvirus 1. Description: Antiviral activity against Herpes simplex viruses type 1. It is filed as functional, organism-based.
The subject of a further assay is Cytomegalovirus. Description: Antiviral activity against Cytomegalovirus. It is filed as functional, organism-based. The note with it: Human betaherpesvirus 5.
Assay [11] is described as follows: Inhibition of Babesia bovis DHODH.
A short description of assay [12]: Inhibition of Aspergillus fumigatus DHODH.
Assay [13] concerns Dengue virus. Description: Antiviral activity against Dengue virus assessed as reduction in virus replication. It is filed as functional, organism-based.
Assay [14] can be described thus: Selectivity index, ratio of IC50 for human DHODH to IC50 for Schistosoma mansoni DHODH.

We go through 20 molecules from ChEMBL document CHEMBL4402534, “Dihydroorotate dehydrogenase inhibitors in anti-infective drug research” (Eur J Med Chem, 2019).

Values after ≈ are worked out from the molar mass of the structure shown.

T1 sequence (Q02127 whole entry): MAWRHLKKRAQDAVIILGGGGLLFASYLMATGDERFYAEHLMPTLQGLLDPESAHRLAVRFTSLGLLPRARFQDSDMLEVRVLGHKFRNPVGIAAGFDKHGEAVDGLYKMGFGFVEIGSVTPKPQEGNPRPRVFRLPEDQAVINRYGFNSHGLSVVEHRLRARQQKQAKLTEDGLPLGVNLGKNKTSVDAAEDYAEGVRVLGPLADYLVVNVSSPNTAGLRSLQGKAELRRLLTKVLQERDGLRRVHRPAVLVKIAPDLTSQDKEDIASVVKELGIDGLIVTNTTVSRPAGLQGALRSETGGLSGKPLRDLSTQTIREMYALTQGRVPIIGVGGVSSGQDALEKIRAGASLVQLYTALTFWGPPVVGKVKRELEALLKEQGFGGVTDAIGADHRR

As for `Cc1nc2c(C#N)cccc2n1-c1ccc(C(=O)NC2CC2)s1`, the IC50 in assay [1] came to 50 nM.
With `Cc1[nH]c2ccc(-c3nnc(SCC(=O)N4CCCC4)o3)cc2c1C`, it took 1130 nM to reach half-maximal inhibition in assay [2] (IC50).
Take `Cc1cc(Nc2ccc(S(F)(F)(F)(F)F)cc2)n2ncnc2n1`: inhibition in assay [1] was half-maximal at 130 nM (IC50).
As for `COC(=O)c1c(-c2c(Cl)cccc2Cl)noc1-c1cnn(-c2cccc(Cl)c2)c1C(F)(F)F`, the EC50 (in assay [3]; with Yellow fever virus; with Dengue virus [4]; in the assay on West Nile virus; in assay [5]) was 2.4 nM each time. Besides, in [6], half-maximal inhibition (IC50) was put at 103 nM.
As to `Cc1nc2c(OC(F)F)cccc2n1-c1ccc(C(=O)NC2CC2)s1`, the IC50 in assay [1] came to 220 nM.
The molecule `Cc1nc2cc(OC(F)(F)F)ccc2n1-c1ccc(C(=O)NC2CC2)s1` displayed an IC50 in assay [1] of 220 nM.
For `COc1ccc(-n2nc(C(=O)NCc3ccccc3)cc2C(=O)Nc2ccc(C(=O)N3CCCC3)cc2)cc1`, the Ki in assay [7] is 26 nM. It took 3 µg/mL (≈ 5.73 µM) to inhibit growth against Helicobacter pylori (MIC).
As to `O=c1sn(-c2ccccc2)c(=O)n1-c1ccc(F)cc1`, the IC50 in [8] was 75 nM; in [9], 840 nM; in assay [6], greater than 100000 nM.
Take `O=C(NCc1cccnc1)c1cc(C(=O)Nc2ccccc2)n(-c2ccc(Cl)cc2)n1`: in assay [7], the affinity, expressed as Ki, was 4 nM. This molecule also yielded an MIC with Helicobacter pylori of 0.25 µg/mL (≈ 0.579 µM).
For `CSC(=NCn1c(C/C=C(\C)CCC=C(C)C)c(C)c(=O)c2ccccc21)SC`, in [7], half-maximal inhibition (IC50) was put at 11100 nM.
`CCCCCCCCc1[nH]c2ccccc2c(=O)c1C` had an IC50 in [7] of 4550 nM.
For `O=C(Nc1c(F)c(F)c(-c2cccc(OC(F)(F)F)c2)c(F)c1F)c1ccsc1C(=O)O` [KIO-100], the IC50 with Human alphaherpesvirus 3 is 3.55 nM; in the assay with Human alphaherpesvirus 2, greater than 10000 nM; in assay [10], 1.55 nM; in the assay on Human alphaherpesvirus 1 it was greater than 10000 nM; in the assay with Cytomegalovirus, 1500 nM.
In turn, `Cc1oncc1C(=O)Nc1ccc(C(F)(F)F)cc1` [LEFLUNOMIDE] had an IC50 in assay [11] of 52400 nM.
For `Cc1cc(-c2ccccc2)c(C(=O)C(=O)Nc2ccc(N3CCN(c4ncc(F)cn4)CC3)cc2)n1C` [OLOROFIM], the IC50 in assay [6] is greater than 100000 nM; in [12], 44 nM.
On to `O=C(NCc1ccccc1)c1cc(C(=O)Nc2ccccc2)n(-c2ccc(Cl)cc2)n1`, for which the affinity in [7] corresponds to a Ki of 4 nM. Further, 0.125 µg/mL (≈ 0.29 µM) was the least that counted as inhibitory in the assay with Helicobacter pylori (MIC).
The molecule `COc1ccc(-n2nc(C(=O)Nc3ccccc3O)cc2C(=O)Nc2ccc(C(=O)N3CCCC3)cc2)cc1` showed a Ki in [7] of 50 nM.
Regarding `Cc1c(-c2ccc(-c3ccccc3F)cc2)nc2ccc(F)cc2c1C(=O)O` [BREQUINAR], the EC50 (in [3]; in the assay with Yellow fever virus; in the assay on Dengue virus [4]; in the assay on West Nile virus; in [5]) was 78 nM each time. For the same molecule, the midpoint of inhibition in assay [11], the IC50, lay at 52400 nM.
In [2], `C[C@H](c1ccc(-c2ccccc2)cc1)N(C)C(=O)CSc1nnnn1-c1ccc(O)cc1` returned an IC50 of 41000 nM.
For the molecule `O=C(N[C@@H]1CCCc2c1[nH]c1ccc(Cl)cc21)c1ccccn1`, in the assay with Dengue virus [13], the IC50 worked out at 13.3 nM. Further, the affinity in assay [6], expressed as Ki, was 203 nM.
As to `O=C1C(O)=C([C@H]2CC[C@H](c3ccc(Cl)cc3)CC2)C(=O)c2ccccc21` [ATOVAQUONE], the results for the IC50 in [11] and in assay [6] were 2.38 nM and 2600 nM, respectively. Besides, the Ratio IC50 in assay [14] is 6.
